# Where two headings read alike, the source gives them in different places.
# Legend:
# Format in all cases: cell-based
# Streptococcus pneumoniae [1] = experiment: MIC by agar dilution (NCCLS), 411 isolates Buenos Aires 1998-99; settings: for MIC / MIC90: Streptococcus pneumoniae; for MIC: Ciprofloxacin-resistant S. pneumoniae, read-out: MIC; for MIC90: read-out: MIC90
# Aeromonas spp. [2] = experiment: MIC by agar dilution (NCCLS M7-A4), 288 enteropathogenic isolates, gemifloxacin and 15 other antimicrobials; settings: Aeromonas spp. N= 16
# Staphylococcus aureus [3] = experiment: microbe, parasite or virus in culture
# Salmonella spp. [4] = experiment: MIC by agar dilution (NCCLS M7-A4), 288 enteropathogenic isolates, eight quinolones; settings: for MIC: ciprofloxacin MIC ≥[…], read-out: MIC
# Aeromonas spp. [5] = experiment: as above; settings: Aeromonas spp. (n = 16)
# Haemophilus influenzae [6] = experiment: MIC by two-fold serial agar dilution, Sensitivity Disk agar-N (Kitasato isolates); settings: Haemophilus influenzae (24)
# Enterococcus faecalis = experiment: MIC by agar dilution (NCCLS), 411 isolates Buenos Aires 1998-99; settings: Enterococcus faecalis (n = 48)
# Haemophilus influenzae [7] = experiment: MIC by broth microdilution (NCCLS), dried MicroScan panels, clinical isolates 1998-1999; settings: for MIC90: Haemophilus influenzae
# Salmonella spp. [8] = experiment: MIC by agar dilution (NCCLS M7-A4), 288 enteropathogenic isolates, gemifloxacin and 15 other antimicrobials
# Enterococcus gallinarum = experiment: MIC by NCCLS broth microdilution, 1100 Japanese clinical isolates 1997-1998; settings: Enterococcus gallinarum, GALLINARUM, Enterococcus gallinarum (vanC1), read-out: MIC
# Staphylococcus aureus [9] = experiment: as above; settings: for MIC: Staphylococcus aureus quinolone resistant, read-out: MIC
# Hafnia alvei = experiment: MIC by agar dilution (NCCLS M7-A4), 288 enteropathogenic isolates, gemifloxacin and 15 other antimicrobials; settings: Hafnia alvei N= 32
# Escherichia coli = experiment: MIC by NCCLS broth microdilution, 1100 Japanese clinical isolates 1997-1998; settings: for MIC50 / MIC90: Escherichia coli
# Proteus mirabilis = experiment: as above
# Streptococcus pneumoniae [10] = experiment: MIC by NCCLS reference broth microdilution, 450 respiratory tract pathogens; settings: Streptococcus pneumoniae
# [11] = Streptococcus pneumoniae (n = 90)
# [12] = Haemophilus influenzae (300 isolates)
# [13] = Staphylococcus aureus, Staphylococcus aureus oxacillin resistant (n=57)
# [14] = Escherichia coli ciprofloxacin resistant (n=5)
# [15] = Escherichia coli ciprofloxacin susceptible (n=37)
# [16] = Streptococcus pneumoniae (n = 100)
# [17] = erythromycin resistant M phenotype (n = 16)
# [18] = erythromycin resistant MLSB phenotype (n = 16)
# [19] = penicillin intermediate (n = 16)
# [20] = penicillin susceptible (n = 20)
smiles,measurement,setting,value
"C[C@H]1COc2c(N3CCN(C)CC3)c(F)cc3c(=O)c(C(=O)O)cn1c23 [Levofloxacin, levofloxacin]",MIC Range,Streptococcus pneumoniae [1]; [11],0.25 to 4 µg/mL
same,MIC,Streptococcus pneumoniae [1]; Strain 1,1 µg/mL
same,MIC,Streptococcus pneumoniae [1]; Strain 2,1 µg/mL
same,MIC,Streptococcus pneumoniae [1]; Strain 3,4 µg/mL
same,MIC,Streptococcus pneumoniae [1]; Strain 4,2 µg/mL
same,MIC90,"Streptococcus pneumoniae [1]; S. pneumoniae, Penicillin intermediate (n = 17)",1 µg/mL
same,MIC90,"Streptococcus pneumoniae [1]; S. pneumoniae, Penicillin resistant (n = 4)",1 µg/mL
same,MIC90,"Streptococcus pneumoniae [1]; S. pneumoniae, Penicillin susceptible (n = 69)",1 µg/mL
same,MIC90,Streptococcus pneumoniae [1]; [11],1 µg/mL
same,MIC (mg/L) Range,Aeromonas spp. [2],≤0.015 to 0.06 mg/L
same,MIC,Aeromonas spp. [2]; read-out: MIC (mg/L) 50%,≤ 0.015 mg/L
same,MIC,Aeromonas spp. [2]; read-out: MIC (mg/L) 90%,≤ 0.015 mg/L
same,MIC Range,Staphylococcus aureus [3]; Methicillin-resistant (38),0.25 to 128 µg/mL
same,MIC Range,Staphylococcus aureus [3]; Methicillin-susceptible (9),0.125 to 1 µg/mL
same,MIC50,"Staphylococcus aureus [3]; Staphylococcus aureus, Methicillin-resistant (38)",8 µg/mL
same,MIC90,"Staphylococcus aureus [3]; Staphylococcus aureus, Methicillin-susceptible (9), read-out: MIC90",1 µg/mL
same,MIC,"Staphylococcus aureus [3]; Staphylococcus aureus, S. aureus KU2240, mutant type Wild (wild strain)",0.25 µg/mL
same,MIC,"Staphylococcus aureus [3]; Staphylococcus aureus, S. aureus KU2243, mutant type G+T (DNA gyrase and topoisomerase IV)",> 128 µg/mL
same,MIC,"Staphylococcus aureus [3]; Staphylococcus aureus, S. aureus KU2245, mutant type G+T (DNA gyrase and topoisomerase IV)",32 µg/mL
same,MIC,"Staphylococcus aureus [3]; Staphylococcus aureus, S. aureus KU2246, mutant type T (DNA topoisomerase IV)",1 µg/mL
same,MIC,Salmonella spp. [4]; S. hadar (n = 2),1 µg/mL
same,MIC,Salmonella spp. [4]; S. newport (n = 1),1 µg/mL
same,MIC,Salmonella spp. [4]; S. virchow (n = 2),0.25 µg/mL
same,% Susceptible,Salmonella spp. [4]; Salmonella spp. (n = 106),100%
same,MIC50,Salmonella spp. [4]; Salmonella spp. (n = 106),0.06 µg/mL
same,MIC90,Salmonella spp. [4]; Salmonella spp. (n = 106),0.25 µg/mL
same,MIC Range,Salmonella spp. [4]; Salmonella spp. (n = 106),0.06 to 1 µg/mL
same,MIC,"Salmonella spp. [4]; Salmonella, S. tshiongwe (n = 1)",1 µg/mL
same,% Susceptible,Aeromonas spp. [5],100%
same,MIC50,Aeromonas spp. [5],≤ 0.015 µg/mL
same,MIC90,Aeromonas spp. [5],≤ 0.015 µg/mL
same,MIC Range,Aeromonas spp. [5],≤0.015 to 0.06 µg/mL
same,MIC50,Haemophilus influenzae [6],0.031 µg/mL
same,MIC90,Haemophilus influenzae [6],0.031 µg/mL
same,MIC Range,Haemophilus influenzae [6],0.016 to 0.031 µg/mL
same,MIC90,Enterococcus faecalis,> 32 µg/mL
same,MIC50,Haemophilus influenzae [7]; [12],≤ 0.015 µg/mL
same,MIC Range,Haemophilus influenzae [7]; [12],≤0.015 to 0.5 µg/mL
same,MIC90,Haemophilus influenzae [7]; [12],0.03 µg/mL
same,MIC90,Haemophilus influenzae [7]; β-lactamase negative (234),0.03 µg/mL
same,MIC90,Haemophilus influenzae [7]; β-lactamase positive (66),0.03 µg/mL
same,MIC,"Salmonella spp. [8]; S. hadar(2), isolates with MICs for ciprofloxacin ≥[…], read-out: MIC",1 mg/L
same,MIC,"Salmonella spp. [8]; S. newport(1), isolate with MIC for ciprofloxacin ≥[…], read-out: MIC",1 mg/L
same,MIC,"Salmonella spp. [8]; S. virchow(2), isolates with MICs for ciprofloxacin ≥[…], read-out: MIC",0.25 mg/L
same,MIC (mg/L) Range,Salmonella spp. [8]; Salmonella spp. N= 106,0.06 to 1 mg/L
same,MIC,"Salmonella spp. [8]; Salmonella, S. tshiongwe(1), isolate with MIC for ciprofloxacin ≥[…], read-out: MIC",1 mg/L
same,MIC,"Salmonella spp. [8]; Salmonella, read-out: MIC (mg/L) 50%, Salmonella spp. N= 106",0.06 mg/L
same,MIC,"Salmonella spp. [8]; Salmonella, read-out: MIC (mg/L) 90%, Salmonella spp. N= 106",0.25 mg/L
same,MIC,Enterococcus gallinarum; strain TMS1,1 µg/mL
same,MIC,Enterococcus gallinarum; strain TMS2,2 µg/mL
same,MIC,Enterococcus gallinarum; strain TMS3,1 µg/mL
same,MIC,Enterococcus gallinarum; strain TMS4,0.5 µg/mL
same,MIC Range,Staphylococcus aureus [9]; Staphylococcus aureus oxacillin susceptible (n=41),0.125 to 1 µg/mL
same,MIC50,Staphylococcus aureus [9]; [13],4 µg/mL
same,MIC90,Staphylococcus aureus [9]; [13],64 µg/mL
same,MIC50,"Staphylococcus aureus [9]; Staphylococcus aureus, Staphylococcus aureus oxacillin susceptible (n=41)",0.25 µg/mL
same,MIC,"Staphylococcus aureus [9]; Staphylococcus aureus, strain TMS3",> 128 µg/mL
same,MIC,"Staphylococcus aureus [9]; Staphylococcus aureus, strain TMS4",16 µg/mL
same,MIC,"Staphylococcus aureus [9]; Staphylococcus aureus, strain TMS5",4 µg/mL
same,MIC,"Staphylococcus aureus [9]; Staphylococcus aureus, strain TMS6",2 µg/mL
same,MIC,"Hafnia alvei; 24 h, read-out: MIC (mg/L) Range",0.015 to 0.03 mg/L
same,MIC,Hafnia alvei; read-out: MIC (mg/L) 50%,0.03 mg/L
same,MIC,Hafnia alvei; read-out: MIC (mg/L) 90%,0.03 mg/L
same,MIC Range,Escherichia coli; [14],4 to 128 µg/mL
same,MIC Range,Escherichia coli; [15],≤0.008 to 0.25 µg/mL
same,MIC50,Escherichia coli; [14],16 µg/mL
same,MIC90,"Escherichia coli; Escherichia coli ciprofloxacin resistant (n=5), values marked *: MIC80 value",16 µg/mL
same,MIC50,Escherichia coli; [15],0.032 µg/mL
same,MIC90,Escherichia coli; [15],0.063 µg/mL
same,MIC90,Proteus mirabilis; Proteus mirabilis,0.125 µg/mL
same,MIC Range,Proteus mirabilis; Proteus mirabilis (n=30),0.032 to 2 µg/mL
same,MIC50,"Proteus mirabilis; Proteus mirabilis (n=30), read-out: MIC50",0.063 µg/mL
same,MIC,Streptococcus pneumoniae [10]; [16],0.25 to 2 µg/mL
same,MIC50,Streptococcus pneumoniae [10]; [16],1 µg/mL
same,MIC90,Streptococcus pneumoniae [10]; [16],1 µg/mL
same,MIC,Streptococcus pneumoniae [10]; [17],1 to 2 µg/mL
same,MIC50,Streptococcus pneumoniae [10]; [17],1 µg/mL
same,MIC90,Streptococcus pneumoniae [10]; [17],1 µg/mL
same,MIC,Streptococcus pneumoniae [10]; [18],0.5 to 2 µg/mL
same,MIC50,Streptococcus pneumoniae [10]; [18],1 µg/mL
same,MIC90,Streptococcus pneumoniae [10]; [18],1 µg/mL
same,MIC,Streptococcus pneumoniae [10]; multi-drug resistant (n = 16),0.5 to 1 µg/mL
same,MIC50,Streptococcus pneumoniae [10]; multi-drug resistant (n = 16),1 µg/mL
same,MIC90,Streptococcus pneumoniae [10]; multi-drug resistant (n = 16),1 µg/mL
same,MIC,Streptococcus pneumoniae [10]; [19],0.5 to 1 µg/mL
same,MIC50,Streptococcus pneumoniae [10]; [19],1 µg/mL
same,MIC90,Streptococcus pneumoniae [10]; [19],1 µg/mL
same,MIC,Streptococcus pneumoniae [10]; penicillin resistant (n = 18),0.5 to 2 µg/mL
same,MIC50,Streptococcus pneumoniae [10]; penicillin resistant (n = 18),0.5 µg/mL
same,MIC90,Streptococcus pneumoniae [10]; penicillin resistant (n = 18),1 µg/mL
same,MIC,Streptococcus pneumoniae [10]; [20],0.25 to 1 µg/mL
same,MIC50,Streptococcus pneumoniae [10]; [20],1 µg/mL
same,MIC90,Streptococcus pneumoniae [10]; [20],1 µg/mL
